Measured values published in ChEMBL document CHEMBL1201862, “PubChem BioAssay data set” (2004).
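Assay format: 96-well plates, 48-hour exposure. GI50: concentration for 50% inhibition of growth.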 Calls of active or inactive are those of the source. Cut-off read from the data, not from the text of the source: active = GI50 up to about 1.1 µM and inactive = higher.

Assays:
Assay in all cases: inhibition of tumour cell growth, NCI panel, 48 h
MOLT-4 = system: MOLT-4
SW-620 = system: SW-620
A549 = system: A549
EKVX = system: EKVX
HL-60 = system: HL-60
HCT-15 = system: HCT-15
M14 = system: M14
HCT-116 = system: HCT-116
MCF7 = system: MCF7
BT-549 = system: BT-549
OVCAR-3 = system: OVCAR-3
OVCAR-4 = system: OVCAR-4
PC-3 = system: PC-3
Hs-578T = system: Hs-578T
HOP-18 = system: HOP-18
SNB-78 = system: SNB-78
RPMI-8226 = system: RPMI-8226
DMS-114 = system: DMS-114
NCI-H522 = system: NCI-H522
HT-29 = system: HT-29
CCRF-CEM = system: CCRF-CEM
UO-31 = system: UO-31
KM-20L2 = system: KM-20L2
DMS-273 = system: DMS-273
COLO 205 = system: COLO 205
NCI/ADR-RES = system: NCI/ADR-RES
LOX IMVI = system: LOX IMVI
SK-MEL-2 = system: SK-MEL-2
A498 = system: A498
NCI-H460 = system: NCI-H460
LXFL 529 = system: LXFL 529
Malme-3M = system: Malme-3M
786-0 = system: 786-0
OVCAR-5 = system: OVCAR-5
SF-268 = system: SF-268
RXF 393 = system: RXF 393
TK-10 = system: TK-10
SNB-75 = system: SNB-75
SN12C = system: SN12C
OVCAR-8 = system: OVCAR-8
XF498 = system: XF498
SR = system: SR
SF-295 = system: SF-295
SF-539 = system: SF-539
KM12 = system: KM12
HOP-62 = system: HOP-62
IGROV-1 = system: IGROV-1
SNB-19 = system: SNB-19
UACC-62 = system: UACC-62
UACC-257 = system: UACC-257
M19-MEL = system: M19-MEL
ACHN = system: ACHN
CAKI-1 = system: CAKI-1
SK-OV-3 = system: SK-OV-3
SK-MEL-28 = system: SK-MEL-28
K562 = system: K562
NCI-H226 = system: NCI-H226
HOP-92 = system: HOP-92
NCI-H23 = system: NCI-H23
SK-MEL-5 = system: SK-MEL-5
U-251 = system: U-251
HCC 2998 = system: HCC 2998
DLD-1 = system: DLD-1

## COc1cc(CNc2ccc(SC)cc2)cc(OC)c1OC
MOLT-4
  GI50: 4.85 µM (inactive)
SW-620
  GI50: 4.02 µM (inactive)
A549
  GI50: 10 µM (inactive)
EKVX
  GI50: 49.7 µM (inactive)
HL-60
  GI50: 4.84 µM (inactive)
HCT-15
  GI50: 4.08 µM
M14
  GI50: 4.38 µM (inactive)
HCT-116
  GI50: 6.93 µM (inactive)
MCF7
  GI50: 5.69 µM (inactive)
BT-549
  GI50: 3.18 µM (inactive)
OVCAR-3
  GI50: 7.26 µM (inactive)
OVCAR-4
  GI50: 46.9 µM (inactive)
PC-3
  GI50: 12.4 µM (inactive)
Hs-578T
  GI50: 12.4 µM (inactive)
HOP-18
  GI50: 33.5 µM (inactive)
SNB-78
  GI50: 48.3 µM (inactive)
RPMI-8226
  GI50: 11.9 µM (inactive)
DMS-114
  GI50: 5.15 µM (inactive)
NCI-H522
  GI50: 4.92 µM (inactive)
HT-29
  GI50: 4.39 µM (inactive)
CCRF-CEM
  GI50: 12.2 µM (inactive)
UO-31
  GI50: 20 µM (inactive)
KM-20L2
  GI50: 4.3 µM (inactive)
DMS-273
  GI50: 3.08 µM (inactive)
COLO 205
  GI50: 4.48 µM (inactive)
NCI/ADR-RES
  GI50: 3.78 µM (inactive)
LOX IMVI
  GI50: 9.42 µM (inactive)
SK-MEL-2
  GI50: 4.88 µM (inactive)
A498
  GI50: 22 µM (inactive)
NCI-H460
  GI50: 7.1 µM (inactive)
LXFL 529
  GI50: 18.4 µM (inactive)
Malme-3M
  GI50: 11 µM (inactive)
786-0
  GI50: 14.6 µM (inactive)
OVCAR-5
  GI50: 32.1 µM (inactive)

## COC(=O)N/N=C(\C)C(CN(C)C)C(c1ccccc1)c1c(O)c2ccccc2oc1=O (configuration not stated)
MOLT-4
  GI50: > 100 µM (inactive)
SF-268
  GI50: > 100 µM (inactive)
SW-620
  GI50: > 100 µM (inactive)
A549
  GI50: > 100 µM (inactive)
RXF 393
  GI50: > 100 µM (inactive)
EKVX
  GI50: > 100 µM (inactive)
TK-10
  GI50: > 100 µM (inactive)
SNB-75
  GI50: > 100 µM (inactive)
HL-60
  GI50: > 100 µM (inactive)
HCT-15
  GI50: > 100 µM
SN12C
  GI50: > 100 µM (inactive)
OVCAR-8
  GI50: > 100 µM (inactive)
M14
  GI50: > 100 µM (inactive)
HCT-116
  GI50: > 100 µM (inactive)
XF498
  GI50: > 100 µM (inactive)
OVCAR-4
  GI50: > 100 µM (inactive)
SR
  GI50: > 100 µM (inactive)
SF-295
  GI50: > 100 µM (inactive)
SF-539
  GI50: > 100 µM (inactive)
KM12
  GI50: > 100 µM (inactive)
HOP-62
  GI50: > 100 µM (inactive)
IGROV-1
  GI50: > 100 µM (inactive)
SNB-19
  GI50: > 100 µM (inactive)
SNB-78
  GI50: > 100 µM (inactive)
UACC-62
  GI50: > 100 µM (inactive)
UACC-257
  GI50: > 100 µM (inactive)
RPMI-8226
  GI50: > 100 µM (inactive)
DMS-114
  GI50: > 100 µM (inactive)
NCI-H522
  GI50: 14.2 µM (inactive)
M19-MEL
  GI50: > 100 µM (inactive)
HT-29
  GI50: > 100 µM (inactive)
ACHN
  GI50: > 100 µM (inactive)
CCRF-CEM
  GI50: > 100 µM (inactive)
CAKI-1
  GI50: > 100 µM (inactive)
UO-31
  GI50: > 100 µM (inactive)
SK-OV-3
  GI50: > 100 µM (inactive)
SK-MEL-28
  GI50: > 100 µM (inactive)
K562
  GI50: > 100 µM (inactive)
KM-20L2
  GI50: > 100 µM (inactive)
NCI-H226
  GI50: > 100 µM (inactive)
DMS-273
  GI50: > 100 µM (inactive)
HOP-92
  GI50: 27.2 µM (inactive)
COLO 205
  GI50: > 100 µM (inactive)
NCI-H23
  GI50: > 100 µM (inactive)
LOX IMVI
  GI50: > 100 µM (inactive)
SK-MEL-2
  GI50: > 100 µM (inactive)
A498
  GI50: > 100 µM (inactive)
SK-MEL-5
  GI50: > 100 µM (inactive)
LXFL 529
  GI50: > 100 µM (inactive)
Malme-3M
  GI50: > 100 µM (inactive)
U-251
  GI50: > 100 µM (inactive)
786-0
  GI50: > 100 µM (inactive)
HCC 2998
  GI50: > 100 µM (inactive)
DLD-1
  GI50: > 100 µM (inactive)
OVCAR-5
  GI50: > 100 µM (inactive)

## O=C(O)CC/C(=N\Nc1nsc2ccccc12)c1ccccc1
MOLT-4
  GI50: 23.4 µM (inactive)
SF-268
  GI50: 39.4 µM (inactive)
SW-620
  GI50: 52.4 µM (inactive)
A549
  GI50: > 100 µM (inactive)
RXF 393
  GI50: 39.1 µM (inactive)
EKVX
  GI50: > 100 µM (inactive)
TK-10
  GI50: > 100 µM (inactive)
SNB-75
  GI50: 0.82 µM (active)
HL-60
  GI50: 25.4 µM (inactive)
HCT-15
  GI50: 36 µM
SN12C
  GI50: 38.1 µM (inactive)
OVCAR-8
  GI50: 66.7 µM (inactive)
M14
  GI50: 54.5 µM (inactive)
HCT-116
  GI50: 41.6 µM (inactive)
OVCAR-3
  GI50: 26.5 µM (inactive)
OVCAR-4
  GI50: 58.5 µM (inactive)
SR
  GI50: 24.9 µM (inactive)
SF-539
  GI50: > 100 µM (inactive)
KM12
  GI50: > 100 µM (inactive)
HOP-62
  GI50: 97.5 µM (inactive)
IGROV-1
  GI50: > 100 µM (inactive)
HOP-18
  GI50: > 100 µM (inactive)
SNB-19
  GI50: > 100 µM (inactive)
SNB-78
  GI50: 47.8 µM (inactive)
UACC-62
  GI50: 58.5 µM (inactive)
UACC-257
  GI50: 57.3 µM (inactive)
RPMI-8226
  GI50: 18.5 µM (inactive)
DMS-114
  GI50: 25.5 µM (inactive)
M19-MEL
  GI50: 72.3 µM (inactive)
HT-29
  GI50: 34.4 µM (inactive)
ACHN
  GI50: 70.6 µM (inactive)
CCRF-CEM
  GI50: 26.6 µM (inactive)
UO-31
  GI50: > 100 µM (inactive)
SK-MEL-28
  GI50: 34.6 µM (inactive)
K562
  GI50: 26.8 µM (inactive)
KM-20L2
  GI50: 78.7 µM (inactive)
DMS-273
  GI50: 24.7 µM (inactive)
HOP-92
  GI50: 51.3 µM (inactive)
COLO 205
  GI50: > 100 µM (inactive)
NCI-H23
  GI50: 27.2 µM (inactive)
LOX IMVI
  GI50: 29.5 µM (inactive)
SK-MEL-2
  GI50: > 100 µM (inactive)
NCI-H460
  GI50: 33.6 µM (inactive)
SK-MEL-5
  GI50: 79.6 µM (inactive)
LXFL 529
  GI50: 42.5 µM (inactive)
U-251
  GI50: 39.1 µM (inactive)
HCC 2998
  GI50: 30.5 µM (inactive)
OVCAR-5
  GI50: > 100 µM (inactive)
